# Assay results from patent publication US10272082B2, “Combination ALS therapy” (Cytokinetics, Inc., priority 2011, dated 2019).
# “Also recorded” adds a separate entry of the source.
# How the values were obtained:
# [1] = Example 4: twice-daily dose titration regimen of CK-2017357 in patients with ALS; assay type: in vivo
# Text: Patients enrolled in this clinical study were randomized, double-blind, and placebo-controlled.
# Placebo patients underwent a similar dummy dose titration to maintain the blind. FIG. 4 illustrates the study design.
# clinical = conditions: human, plasma, CK-2017357 Cmax, 14 days, ALS patients
# [2] = ALS patients
# [3] = Previous clinical experiments with CK-2017357 once a day in the morning; assay type: in vivo, human
# Text: In previous clinical experiments, 1-(ethylpropyl)-6-ethynylimidazo[4,5-b]pyrazin-2-ol (CK-2017357) has been administered once a day in the morning. While improvements in patient and investigator global assessments, muscle fatigability and pulmonary function have been observed in these studies, dizziness has been a dose-limiting adverse event in both healthy volunteers and in patients with ALS. This example examines whether the maximum tolerable total daily dose of CK-2017357 can be increased by dividing the daily dose into two portions (morning and evening), and beginning treatment with a low dose and titrating upward to a target of 250 mg twice daily.
# CYP1A2 = target: T1, CYP1A2 (Homo sapiens, UniProt P05177); assay: Mechanism-based inhibition of human CYP1A2 in vitro; assay type: in vitro ADME
# T1 sequence (P05177 1-516): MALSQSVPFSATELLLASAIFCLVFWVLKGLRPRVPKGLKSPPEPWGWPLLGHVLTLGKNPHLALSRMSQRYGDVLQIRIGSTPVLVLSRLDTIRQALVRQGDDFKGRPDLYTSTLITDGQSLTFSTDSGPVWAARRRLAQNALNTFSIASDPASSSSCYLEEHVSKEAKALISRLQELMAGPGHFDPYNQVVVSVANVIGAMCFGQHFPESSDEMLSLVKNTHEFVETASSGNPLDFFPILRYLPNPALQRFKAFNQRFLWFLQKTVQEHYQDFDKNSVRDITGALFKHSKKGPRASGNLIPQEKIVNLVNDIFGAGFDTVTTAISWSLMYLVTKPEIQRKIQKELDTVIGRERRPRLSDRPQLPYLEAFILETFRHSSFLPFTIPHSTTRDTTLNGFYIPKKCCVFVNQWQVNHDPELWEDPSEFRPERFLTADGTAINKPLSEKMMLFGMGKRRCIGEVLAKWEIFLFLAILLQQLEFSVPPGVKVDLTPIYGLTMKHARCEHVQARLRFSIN
# human hepatic microsomes = conditions: in vitro; high concentrations required; cited from earlier work
# [4] = repeated single daily doses 125-375 mg
smiles,measurement,setting,value
"C#Cc1cnc2nc(O)n(C(CC)CC)c2n1 [CK-2017357, 6-Ethynyl-1-(pentan-3-yl)-1H-imidazo[4,5-b]pyrazin-2(3H)-one]",safety and tolerability of twice-daily dose titration regimen,[1]; ALS patients,safe and well tolerated
same,ALSFRS-R score and MVV,"[1]; CK-2017357 relative to placebo, ALS patients",Encouraging trends toward increases
same,patients in whom dizziness was self-limited,[1]; of 12 patients in whom it occurred,6 patients
same,patients in whom dizziness was mild,[1]; of the 12 patients in whom it occurred,10 patients
same,patients escalated to the highest total daily dose of 500 mg and completing three weeks of dosing,"[1]; of the 21 patients randomized to CK-2017357, twice-daily titration, riluzole 50 mg QD",14 patients
same,most commonly reported treatment-emergent adverse event,"[1]; twice-daily dose titration 250-500 mg total daily, ALS patients",dizziness
same,Cmax,"clinical; 50 mg, CK-2017357 daily dose 125 (mg), On Riluzole (50 mg daily)",6000 ng/mL
same,Cmax,"clinical; 50 mg, CK-2017357 daily dose 250 (mg), On Riluzole (50 mg daily)",8400 ng/mL
same,Cmax,"clinical; 50 mg, CK-2017357 daily dose 375 (mg), On Riluzole (50 mg daily)",13500 ng/mL
same,Cmax,"clinical; 125 mg, CK-2017357 daily dose 125 (mg), No Riluzole",4100 ng/mL
same,Cmax,"clinical; 250 mg, CK-2017357 daily dose 250 (mg), No Riluzole",7400 ng/mL
same,Cmax,"clinical; 375 mg, CK-2017357 daily dose 375 (mg), No Riluzole",12700 ng/mL
same,dose dependence of CK-2017357 pharmacokinetics,"[2]; 125, 250, 375 mg daily for 14 days",increased proportionally by dose; also recorded: predictable linear kinetics
same,adverse event frequencies in the presence of riluzole,[2]; at any dose of CK-2017357,not altered
same,plasma levels achieved steady state by,[2]; [4],≤ 8 days
same,time to reach steady state,[2]; [4],≤ 1 week
same,plasma level four hours after dosing on Day 8 higher than four hours after first dose on Day 1,[2]; repeated single daily doses,approximately 70%
same,effect of riluzole on CK-2017357 Cmax / plasma levels,[2]; riluzole 50 mg daily vs none,no apparent effect of riluzole; also recorded: not affected
same,dose-limiting adverse event,[3]; healthy volunteers and patients with ALS,dizziness
same,"patient and investigator global assessments, muscle fatigability and pulmonary function",[3]; previous clinical experiments,improvements
same,KI (inactivation),CYP1A2; read-out: K1 (inactivation constant),1900 nM
same,kinact,CYP1A2; read-out: kinact (max rate constant for inactivation) (converted),0.000517 s⁻¹
CN(C)CCC=C1c2ccccc2CCc2ccccc21 [amitriptyline],inhibition of the metabolism of riluzole by human hepatic microsomes,human hepatic microsomes,inhibition has been observed
CN(C)CCCN1c2ccccc2CCc2ccc(Cl)cc21 [clomipramine],inhibition of the metabolism of riluzole by human hepatic microsomes,human hepatic microsomes,inhibition has been observed
O=C(O)Cc1ccccc1Nc1c(Cl)cccc1Cl [diclofenac],inhibition of the metabolism of riluzole by human hepatic microsomes,human hepatic microsomes,inhibition has been observed
CO[C@]12C[C@@H](COC(=O)c3cncc(Br)c3)CN(C)[C@@H]1Cc1cn(C)c3cccc2c13 [nicergoline],inhibition of the metabolism of riluzole by human hepatic microsomes,human hepatic microsomes,inhibition has been observed
